Source: patent US20090181408A1 (AMANO ENZYME INC., priority 2006, published 2009)
“And” between values parts separate entries of the source, which are not always exact repeats. Equal values may be shown once.

B1: purified FAD-GDH (Aspergillus oryzae) (protein)
chain: SPAGRAKNTTTYDYIVVGGGTSGLVVANRLSENPDVSVLLLEAGASVFNNPDVTNANGYGLAFGSAIDWQYQSINQSYAGGKQQVLRAGKALGGTSTINGMAYTRAEDVQIDVWQKLGNEGWTWKDLLPYYLKSENLTAPTSSQVAAGAAYNPAVNGKEGPLKVGWSGSLASGNLSVALNRTFQAAGVPWVEDVNGGKMRGFNIYPSTLDVDLNVREDAARAYYFPYDDRKNLHLLENTTANRLFWKNGSAEEAIADGVEITSADGKVTRVHAKKEVIISAGALRSPLILELSGVGNPTILKKNNITPRVDLPTVGENLQDQFNNGMAGEGYGVLAGASTVTYPSISDVFGNETDSIVASLRSQLSDYAAATVKVSNGHMKQEDLERLYQLQFDLIVKDKVPIAEILFHPGGGNAVSSEFWGLLPFARGNIHISSNDPTAPAAINPNYFMFEWDGKSQAGIAKYIRKILRSAPLNKLIAKETKPGLSEIPATAADEKWVEWLKANYRSNFHPVGTAAMMPRSIGGVVDNRLRVYGTSNVRVVDASVLPFQVCGHLVSTLYAVAERASDLIKEDAKSA

How the values were obtained:
[1] = test system: FAD-GDH derived from Aspergillus oryzae BB-56; experiment: Substrate specificity 2, relative activity (PMS/DCIP); format: biochemical; details: activity with D-glucose assumed 100%; dialyzed culture filtrate; MOPS pH 7.0, 25° C.
Description: (§1) 10 mL of each culture filtrate derived from Aspergillus oryzae BB-56, IAM2603, IAM2628, IAM2683, IAM2736, IAM2706, or NBRC30113 was placed in a dialysis membrane 36 and dialyzed in 10 mM KH2PO4—NaOH at 4° C. over night.
(§2) By measuring the decrease of DCIP by the reduction reaction in the absorbance at 600 nm, the FAD-GDH activity was measured. The activity with respect to each substrate was calculated when the activity with respect to D-glucose as a substrate was assumed to be 100% (Table 4). From the results, the substrate specificities of FAD-GDH derived from Aspergillus oryzae BB-56, IAM2603, IAM2628, IAM2683, IAM2736, IAM2706, or NBRC30113 are the same as each other.

[2] = test system: FAD-GDH derived from Aspergillus oryzae IAM2706; experiment: as above; format: biochemical; details: activity with D-glucose assumed 100%; dialyzed culture filtrate; MOPS pH 7.0, 25° C.
Description: as §1, §2

[3] = test system: FAD-GDH derived from Aspergillus oryzae IAM2628; experiment: as above; format: biochemical; details: activity with D-glucose assumed 100%; dialyzed culture filtrate; MOPS pH 7.0, 25° C.
Description: as §1, §2

[4] = test system: FAD-GDH derived from Aspergillus oryzae IAM2683; experiment: as above; format: biochemical; details: activity with D-glucose assumed 100%; dialyzed culture filtrate; MOPS pH 7.0, 25° C.
Description: as §1, §2

[5] = test system: FAD-GDH derived from Aspergillus oryzae NBRC30113; experiment: as above; format: biochemical; details: activity with D-glucose assumed 100%; dialyzed culture filtrate; MOPS pH 7.0, 25° C.
Description: as §1, §2

[6] = test system: FAD-GDH derived from Aspergillus oryzae IAM2736; experiment: as above; format: biochemical; details: activity with D-glucose assumed 100%; dialyzed culture filtrate; MOPS pH 7.0, 25° C.
Description: as §1, §2

[7] = test system: FAD-GDH derived from Aspergillus oryzae IAM2603; experiment: as above; format: biochemical; details: activity with D-glucose assumed 100%; dialyzed culture filtrate; MOPS pH 7.0, 25° C.
Description: as §1, §2

purified FAD-GDH [8] = biological target: purified FAD-GDH (Aspergillus oryzae, UniProt A0A1S9DW10); experiment: Substrate specificity 1 of purified FAD-GDH (PMS/NTB); format: biochemical, Aspergillus oryzae BB-56; details: reaction rate with respect to D-glucose assumed 100%, PIPES-NaOH pH 6.5, 37° C.
Description: Thus, the enzymatic activity was measured. The relative activity with respect to each substrate was calculated when the reaction rate with respect to D-glucose was assumed to be 100% (Table 3).

[9] = phosphate buffer pH 7.0, 37° C.; for GO activity: 500 nm
Description: D-glucose+O2→D-glucono-δ-lactone+H2O2 Reaction 1
H2O2+4-aminoantipyrine+phenol→quinonimine dye+4H2O Reaction 2
H2O2 produced with GO in the reaction 1 is used in a production reaction of quinonimine dye with peroxidase in the reaction 2. By measuring the quinonimine dye in the absorbance in 500 nm, the GO activity was measured. The amount of enzyme oxidizing 1 μmole of D-glucose for one minute in the reaction condition at 37° C. is defined as one unit of the GO activity.
2.0 mL of phenol solution (0.1M phosphate buffer (pH 7.0) containing 0.152% phenol and 0.152% Triton X-100), 0.5 mL of 0.555 mol/L D-glucose solution, 0.5 mL of 25 U/mL peroxidase (AMANO ENZYME INC) solution, and 0.1 mL of 4 mg/mL 4-aminoantipyrine solution were mixed with each other and kept at 37° C. for 5 minutes. […] Two minutes and 5 minutes after the reaction was started, the absorbance in 500 nm was measured. Furthermore, as enzyme blank, 0.1M phosphate buffer (pH 7.0) was added instead of an enzyme solution, similarly the absorbance was measured. The GO activity was calculated from the following calculation formula.
In the formula, “3” denotes a reaction time, “12.88” denotes molecular absorption constant (mM) of the quinonimine dye, “1/2” denotes a coefficient based on the fact that 1 mole of quinonimine dye is produced from 2 mole of H2O2, “3.2” denotes a final liquid amount of the reaction solution, “0.1” is sample amount (mL), and “Dm” is dilution ratio, respectively.

[10] = PMS/NTB, pH 6.5, 37° C.
Description: 2.55 mL of 50 mM PIPES-NaOH buffer (pH 6.5) containing 0.22% (w/v) Triton X-100, 0.1 mL of 1M D-glucose solution, 0.2 mL of 3 mM PMS solution, and 0.1 mL of 6.6 mM NTB solution were mixed with each other and kept at 37° C. for 5 minutes. […] Diformazan produced by the enzyme reaction was measured in the absorbance in 570 nm and the amount Diformazan produced per minute was measured. Thus, the enzymatic activity was measured.

[11] = Investigation of temperature for stability; format: physicochemical
Description: Herein, the optimum pH is a value measured in, for example, Mcllvaine buffer as mentioned below in the Examples. The optimum temperature is also a value measured in, for example, PIPES-NaOH buffer (pH 6.5). Furthermore, the enzyme maintains 80% or more of the activity when it is treated under a certain pH condition at 37° C. for 30 minutes, the enzyme can be “stable” in the pH condition. […] The Km value and the isoelectric point can be measured and evaluated by the method described below in the Examples (columns 8 and 6).
Purified FAD-GDH was diluted to 1 U/mL with 50 mM PIPES-NaOH buffer (pH 6.5) containing 1 mM calcium chloride, 0.1% (w/v) Triton X-100, and 0.1% (w/v) bovine serum albumin and treated at each designated temperature (5, 30, 40, 50, or 60° C.) for 20 minutes. Each treated solution was cooled in ice and then it was diluted with 50 mM PIPES-NaOH buffer (pH 6.5) containing 1 mM calcium chloride, 0.1% (w/v) Triton X-100, 0.1% (w/v) bovine serum albumin, and the FAD-GDH activity was measured in the above-mentioned method 1. As a control, FAD-GDH of the not thermally treated enzyme was measured. […]

[12] = Measurement of isoelectric point (glycerol density gradient electrophoresis); format: physicochemical
Description: This dialysis sample was subjected to glycerol density gradient electrophoresis. A carrier ampholyte having a column volume of 110 mL (Pharmalyte™ 3-10 for IEF (Amersham Biosciences AB), average final concentration of 1%) was used to allow an electric current to pass at 5° C. at a constant voltage of 400V for 48 hours. After passing current, samples were recovered at the flow rate of about 2 mL/min (one fraction was made to be 1.5 mL). When pH and FAD-GDH activity of each fraction were measured, pI of FAD-GDH derived from Aspergillus oryzae BB-56 was 6.4 (FIG. 9).

[13] = Investigation of optimum temperature; format: biochemical; details: PIPES-NaOH buffer pH 6.5, 30-65° C.
Description: Thus, the enzymatic activity was measured. […] (FIG. 6).

[14] = Investigation of pH for stability; format: physicochemical; details: pH 3.0 to pH 7.0, 37° C., 30 minutes
Description: Herein, the optimum pH is a value measured in, for example, Mcllvaine buffer as mentioned below in the Examples. The optimum temperature is also a value measured in, for example, PIPES-NaOH buffer (pH 6.5). Furthermore, the enzyme maintains 80% or more of the activity when it is treated under a certain pH condition at 37° C. for 30 minutes, the enzyme can be “stable” in the pH condition. Similarly, when the activity of the enzyme is not substantially deteriorated (that is to say, about 100% of the activity is maintained) after it is treated under a certain temperature condition in a suitable buffer solution (for example, PIPES-NaOH buffer, pH 6.5) for 20 minutes, the enzyme can be “stable” in the temperature condition. The Km value and the isoelectric point can be measured and evaluated by the method described below in the Examples (columns 8 and 6).
Each treatment solution was appropriately diluted with 0.2M KH2PO4—NaOH buffer (pH 6.5) and the FAD-GDH activity was measured by the above-mentioned method 1. As a control, the activity of purified FAD-GDH, which was diluted with 0.1M KH2PO4—NaOH buffer (pH 6.5) and stored in ice, was also measured. As a result, FAD-GDH maintains 80% or more of the activity at least in the range from pH 3.0 to pH 7.0, showing that FAD-GDH is stable in the range from pH 3.0 to pH 7.0 (FIG. 7).

purified FAD-GDH [15] = experiment: Inhibition test with 1,10-phenanthroline (DCIP/1-methoxy PMS); format: biochemical, Aspergillus oryzae
Description: The enzymatic activities were measured in the control group and the test group (group in which 1,10-phenanthroline was added) and both activities were compared with each other. Thereby, the inhibition effect of 1,10-phenanthroline on purified FAD-GDH was examined.
Subsequently, 0.05 mL of enzyme solution was added, the change of absorbance in 600 nm of DCIP (ΔABS/min) was measured, and the enzymatic activity was calculated by the following calculation formula.
In the above-mentioned measurement method, the enzymatic activities when 1,10-phenanthroline was added so that the final concentration became 1 mM, 5 mM, 10 mM, 25 mM, and 50 mM were measured, respectively.

[16] = substrate: OC[C@H]1OC(O)[C@H](O)[C@@H](O)[C@@H]1O; experiment: Measurement of Michaelis-Menten Km constant (Lineweaver-Burk plot); format: biochemical, Aspergillus oryzae BB-56; details: other: purified FAD-GDH, PIPES-NaOH pH 6.5, 37° C.

Molecule	relative activity, BB-56 [1]	relative activity, IAM2706 [2]	relative activity, IAM2628 [3]	relative activity, IAM2683 [4]	relative activity, NBRC30113 [5]	relative activity, IAM2736 [6]	relative activity, IAM2603 [7]	relative activity (purified FAD-GDH [8])	further results
O=CC[C@@H](O)[C@H](O)[C@H](O)CO [2-deoxyglucose]	35.1%	33.9%	34.2%	32.7%	35.3%	31.3%	29.0%	–	–
O=C(CO)[C@@H](O)[C@H](O)[C@H](O)CO [fructose]	0%	0%	1.40%	0%	0%	0%	0%	–	–
O=C[C@H](O)[C@@H](O)[C@@H](O)[C@H](O)CO [galactose]	–	–	–	–	–	–	–	0.349%	–
flavin adenine dinucleotide-binding glucose dehydrogenase	–	–	–	–	–	–	–	–	GO activity (in words) [9]: does not substantially have the GO activity; GO activity [9]: 0.0025 U/mL; GDH activity [10]: 119 U/mL; activity maintained after thermal treatment ([11]; 40° C. or less, 20 minutes, pH 6.5): ~100%; temperature for stability ([11]; treated 20 minutes in PIPES-NaOH pH 6.5, stable = about 100% of activity maintained): ≤ 40 °C; isoelectric point (pI) ([12]; listed as FAD-GDH): about 6.4; isoelectric point (pI) ([12]; listed as FAD-GDH derived from Aspergillus oryzae BB-56): 6.4; optimum temperature [13]: about 60 °C; activity maintained after pH treatment [14]: ≥ 80%
maltohexaose	–	–	–	–	–	–	–	0.479%	–
maltopentaose	–	–	–	–	–	–	–	4.55%	–
maltotriose	–	–	–	–	–	–	–	0.239%	–
glucose oxidase [GO]	–	–	–	–	–	–	–	–	GO activity [9]: 67.8 U/mL; GDH activity [10]: 8.86 U/mL; GDH activity (in words) [10]: also has the GDH activity
c1cnc2c(c1)ccc1cccnc12 [1,10-phenanthroline]	–	–	–	–	–	–	–	–	Inhibition effect (purified FAD-GDH [15]; final concentration of 1,10-phenanthroline 5 mM): 21%; Inhibition effect (purified FAD-GDH [15]; final concentration of 1,10-phenanthroline 10 mM): 38%
OC[C@H]1O[C@H](O[C@H]2[C@H](O)[C@@H](O)C(O)O[C@@H]2CO)[C@H](O)[C@@H](O)[C@@H]1O (mixture of isomers) [maltose]	0%	0%	0%	0%	0%	0%	0%	0.582%	–
O=C[C@H](O)[C@@H](O)[C@H](O)CO [xylose]	17.6%	16.1%	16.4%	17.3%	17.6%	14.6%	16.1%	22.7%	–
B1	–	–	–	–	–	–	–	–	Km [16]: 8.2 mM and 8 mM
